Measurements from patent US7598072B2 (priority 2003, dated 2009).

Experiments:
[1] = system: RCASBP(A)-EGFP (ASLV-A) in 293(TVA800) cells; assay type: cell-based, avian sarcoma and leukosis virus
[2] = system: RCASBP(A)-EGFP (ASLV-A) in 293(TVA950) cells; assay type: cell-based, avian sarcoma and leukosis virus
[3] = 30 mM NH4Cl for 10 hours, added at 20 minutes or later after initiating infection
[4] = 30 mM NH4Cl for 10 hours, added at time of initiating infection or 10 minutes later
[5] = 6 hour block with 30 mM NH4Cl, QPCR
[6] = 6 hour block with 30 mM NH4Cl, flow cytometry
[7] = 15 mM MβCD, 15 minutes, no NH4Cl

Compound	effect upon viral infectivity (QPCR) [1, 3]	effect on infection (QPCR of reverse-transcribed DNA) [1, 4]	viral infection during the period of inhibitor treatment ([1]; 30 mM NH4Cl, 6 hours)	level of infection (late viral DNA products) after NH4Cl release, relative to untreated cells [1, 5]	efficiency of infection (EGFP-positive cells) relative to untreated cells [1, 6]	infectivity on increasing time of NH4Cl treatment to 12 hours ([1]; 12 hours NH4Cl, data not shown)	effect upon viral infectivity (QPCR) [2, 3]	effect on infection (QPCR of reverse-transcribed DNA) [2, 4]	viral infection during the period of inhibitor treatment ([2]; 30 mM NH4Cl, 6 hours)	decrease in viral infectivity ([2]; 6 hour 30 mM NH4Cl, irrespective of whether cyclodextrin had been added)	number of viral DNA products after NH4Cl release, relative to untreated cells [2, 5]	efficiency of infection (EGFP-positive cells) relative to untreated cells [2, 6]	infectivity on increasing time of NH4Cl treatment to 12 hours ([2]; 12 hours NH4Cl, data not shown)	loss of infectivity ([1]; 15 mM MβCD 15 minutes combined with 6 hour 30 mM NH4Cl block at time of initiating infection)	effect of cyclodextrin treatment by itself on viral infectivity [1, 7]	effect of cyclodextrin treatment by itself on viral infectivity [2, 7]
Cl.N [NH4Cl, ammonium chloride]	greatly reduced effect	complete block	completely arrested	approximately 60%	85%	did not affect	greatly reduced effect	complete block	completely arrested	approximately 80%	10%	20%	further decrease	–	–	–
methyl-β-cyclodextrin [MβCD]	–	–	–	–	–	–	–	–	–	–	–	–	–	50%	only a minor effect	only a minor effect
